Test results: ChEMBL document CHEMBL3779816, “Microwave-assisted regioselective direct CH arylation of thiazole derivatives leading to increased 1receptor affinity” (Medchemcomm, 2016)

Legend:
Rattus norvegicus = species on record: Rattus norvegicus; assay: Displacement of [3H]di-o-tolylguanidine from sigma 2 receptor in rat liver membranes at 1 uM after 120 mins by liquid scintillation spectrometry in presence of (+)-pentazocine; assay type: cell membranes; conditions: Membrane
[1] = Displacement of [3H]di-o-tolylguanidine from sigma 2 receptor in rat liver membranes after 120 mins by liquid scintillation spectrometry in presence of (+)-pentazocine; assay type: cell membranes, Membrane
[2] = biological target: Sigma non-opioid intracellular receptor 1 (Cavia porcellus, UniProt Q60492); assay: Displacement of [3H](+)-pentazocine from sigma 1 receptor in guinea pig brain membranes after 150 mins by liquid scintillation spectrometry; assay type: cell membranes, Membrane
Chain of Sigma non-opioid intracellular receptor 1 (Q60492 whole entry): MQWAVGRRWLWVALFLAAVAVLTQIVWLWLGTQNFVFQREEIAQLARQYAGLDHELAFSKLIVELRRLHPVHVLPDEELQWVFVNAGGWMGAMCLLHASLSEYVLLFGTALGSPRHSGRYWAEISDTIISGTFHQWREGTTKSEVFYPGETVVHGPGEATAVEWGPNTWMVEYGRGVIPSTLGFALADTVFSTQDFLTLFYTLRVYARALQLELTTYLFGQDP

SMILES	inhibition (Rattus norvegicus) [%]	Ki [1] [nM]	Ki [2] [nM]
COC1Cc2cc(-c3ccc(C)cc3)sc2C2(CCN(Cc3ccccc3)CC2)O1 (stereo unspecified)	44	–	–
COC1Cc2ccsc2C2(CCN(Cc3ccccc3)CC2)O1 (stereo unspecified)	16	–	–
O=C(CCCN1CCC(O)(c2ccc(Cl)cc2)CC1)c1ccc(F)cc1 [HALOPERIDOL]	–	22	–
OC1(c2nccs2)CCN(Cc2ccccc2)CC1	–	1800	33
Cc1ccc(-c2cnc(C3(O)CCN(Cc4ccccc4)CC3)s2)cc1	–	457	7

Other lines, results leading:

inhibition (Rattus norvegicus) [%]	Ki [1] [nM]	Ki [2] [nM]	SMILES
–	107	–	Cc1ccccc1NC(=N)Nc1ccccc1C [DITOLYLGUANIDINE]
–	154	3.8	Cc1ccc(-c2csc(C3(O)CCN(Cc4ccccc4)CC3)n2)cc1
34	–	–	COC1Cc2c(-c3ccc(C)cc3)csc2C2(CCN(Cc3ccccc3)CC2)O1 (stereo unspecified)
